pIC50: −log10 of the molar value. Like-named read-outs stand apart in the source and are kept apart here.
Assays:
Wild type MDCKII cells = test: Permeability in wild type MDCK cell lines (MDCK-WT); type: in vitro ADME; settings: apical to basal, 10 μM test compound, 60 min, pH 7.4
Description: (§1) Wild type MDCKII cells were seeded onto an apical chamber 3 days prior to running the assay at a density of 2.3×10^5 cells per well. The integrity of cell monolayers was evaluated by examining the permeability of lucifer yellow assay using a Spectramax Gemini XS with excitation and emission at 426 nm and 538 nm respectively. Permeation of Lucifer Yellow should be ≤10×10^−6 cm/s for the experimental data to be accepted. The cell monolayers were preincubated in transport buffer (HBSS with CaCl2 and MgCl2)+25 mM HEPES, adjust to pH 7.4) at 37° C. or more than 20 min. Transport experiment was initiated by adding test compound solution (10 μM) to the apical chamber. Samples were obtained from basal chamber at 60 min, followed by addition of ice-cold acetonitrile containing internal standard. LC-MS/MS analysis was conducted as specified below. Standard calibration samples were prepared using the same matrix and analysed in the same manner. [table] […] Papp(cm/s)=(dCB/dt)×VB/(A×CA) dCB/dt is the slope of the cumulative concentration in basal side versus time VB is the volume of the basal compartment A is the area of the membrane surface area CA is the initial concentration in apical side

[1] = as above; type: in vitro ADME; settings: dog, MDCK, pH 7.4, apical to basal, 10 μM test compound, read-out: MDCK-WT (Papp)
Description: as §1

KDM5A protein = target: T1, KDM5A protein (Homo sapiens, UniProt P29375); test: Biochemical KDM5A inhibition assay (HTRF); settings: read-out: IC50 value
T1 construct: purchased BPS Bioscience 50110
Description: Using 384-well white ProxiPlates (PerkinElmer), representative compounds were characterized for their inhibition of KDM5A using HTRF® technology (Cisbio Bioassays). Briefly, the test compounds, reference compounds, and DMSO control (typical compound concentration range 300 pM-10 μM, final assay concentration (FAC) of DMSO 0.5%) were added to 384-well plate by the Echo® acoustic dispensing platform (Labcyte). Three (3) μ1 of KDM5A protein (BPS Bioscience, Cat #50110)(10 or 20 nM FAC) in assay buffer (50 mM MES, 50 mM NaCl, 2 mM ascorbic acid, 0.01% v/v Tween 20, pH 6.5) was added to wells and plates were incubated for 10 minutes at room temperature. Then, 3 μl of biotin-labelled H3K4-me3 substrate (Anaspec Cat #AS-64357-1; 100 nM FAC), alpha-ketoglutaric acid ([…]) and Fe(II)SO4 (FAC 100 μM) in assay buffer was added and plates were incubated for 60 minutes at room temperature. The reaction was stopped with the addition of 6 μl of anti-H3-[…]-Eu(K) (Cisbio Bioassays Cat #61KA2KAE; 0.025 μg/ml FAC)+Streptavidin XL665 (Cisbio Bioassays Cat #610SAXLA; 0.5 μg/ml FAC) in HTRF detection buffer (Cisbio Bioassays Cat #62SDBRDD). The mixture was incubated for 90 minutes at room temperature before 340 nm excitation and measurement of dual emission at 620 nm and 665 nm. The raw data (a 665 nm and a 620 nm reading from each well) for individual assay plates were analyzed. The ratio of emissions was calculated using the following calculation: Ratio=(665 nm emission/620 nm emission)*10000. Using DMSO control (maximum response or 0% inhibition) and 1 μM reference control compound (minimum response or 100% inhibition), percentage inhibition values for each well were calculated using the median values of the minimum and maximum control wells and the following calculation: % Inhibition=(Well ratio-max control ratio)/(min control ratio-max control ratio)*100. Compound IC50 values were calculated from graphs of % inhibition plotted against compound concentration, using a four parameter curve fit.

T1 sequence (P29375 whole entry): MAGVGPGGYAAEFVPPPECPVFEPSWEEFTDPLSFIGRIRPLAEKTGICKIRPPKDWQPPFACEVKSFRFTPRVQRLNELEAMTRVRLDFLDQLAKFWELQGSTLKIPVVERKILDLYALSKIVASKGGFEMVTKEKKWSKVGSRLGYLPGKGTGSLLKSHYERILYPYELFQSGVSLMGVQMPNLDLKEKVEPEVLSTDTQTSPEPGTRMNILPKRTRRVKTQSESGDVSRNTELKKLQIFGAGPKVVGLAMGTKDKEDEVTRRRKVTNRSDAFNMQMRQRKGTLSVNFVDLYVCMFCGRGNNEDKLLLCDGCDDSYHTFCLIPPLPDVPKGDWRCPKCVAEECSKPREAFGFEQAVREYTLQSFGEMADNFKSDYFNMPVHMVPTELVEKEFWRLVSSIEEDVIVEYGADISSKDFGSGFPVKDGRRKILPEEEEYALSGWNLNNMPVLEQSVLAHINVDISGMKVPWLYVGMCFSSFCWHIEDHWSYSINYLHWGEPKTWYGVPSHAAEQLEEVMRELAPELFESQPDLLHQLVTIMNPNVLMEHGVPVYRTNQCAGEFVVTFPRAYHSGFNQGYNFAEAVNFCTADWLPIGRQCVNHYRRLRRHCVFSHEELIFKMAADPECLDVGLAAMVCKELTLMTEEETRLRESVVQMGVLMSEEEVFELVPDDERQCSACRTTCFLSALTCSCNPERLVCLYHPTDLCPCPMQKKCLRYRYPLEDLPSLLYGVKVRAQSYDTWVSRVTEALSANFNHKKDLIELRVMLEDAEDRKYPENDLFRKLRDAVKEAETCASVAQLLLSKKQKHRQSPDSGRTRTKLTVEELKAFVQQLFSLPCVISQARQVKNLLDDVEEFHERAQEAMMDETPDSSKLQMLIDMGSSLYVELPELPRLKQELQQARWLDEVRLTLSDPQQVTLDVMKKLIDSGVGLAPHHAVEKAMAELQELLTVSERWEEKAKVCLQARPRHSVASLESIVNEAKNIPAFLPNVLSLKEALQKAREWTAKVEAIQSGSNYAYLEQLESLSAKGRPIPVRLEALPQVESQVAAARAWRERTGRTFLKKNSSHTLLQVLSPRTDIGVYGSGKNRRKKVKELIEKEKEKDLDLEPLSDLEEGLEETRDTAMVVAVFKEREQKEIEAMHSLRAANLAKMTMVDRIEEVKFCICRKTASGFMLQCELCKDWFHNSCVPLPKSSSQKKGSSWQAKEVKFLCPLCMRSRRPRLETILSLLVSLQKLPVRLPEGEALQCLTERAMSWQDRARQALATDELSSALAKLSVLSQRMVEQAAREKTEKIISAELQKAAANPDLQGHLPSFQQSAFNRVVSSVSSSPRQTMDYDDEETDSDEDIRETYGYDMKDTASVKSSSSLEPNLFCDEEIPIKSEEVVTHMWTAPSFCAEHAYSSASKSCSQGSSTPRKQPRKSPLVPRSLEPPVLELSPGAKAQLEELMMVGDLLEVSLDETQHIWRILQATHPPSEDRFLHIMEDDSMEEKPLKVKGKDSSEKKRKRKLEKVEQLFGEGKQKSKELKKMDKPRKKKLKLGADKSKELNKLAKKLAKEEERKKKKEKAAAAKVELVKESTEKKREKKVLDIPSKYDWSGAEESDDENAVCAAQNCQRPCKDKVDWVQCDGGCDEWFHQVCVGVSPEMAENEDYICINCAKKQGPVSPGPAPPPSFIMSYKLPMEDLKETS

| Compound | MDCK-WT (Papp) [10^−6 cm/s] (Wild type MDCKII cells) | Papp A→B at 60 min, 10 μM [1] [×10⁻⁶ cm/s] | pIC50 (KDM5A protein; 20 nM enzyme concentration) | pIC50 (KDM5A protein; * measured at 10 nM enzyme concentration) |
| --- | --- | --- | --- | --- |
| Cc1onc([C@H]2[C@@H]3CN(C(=O)c4cc(C(C)C)[nH]n4)C[C@@H]32)c1-c1ccccc1 [EXAMPLE 134, (5-Isopropyl-1H-pyrazol-3-yl)((1R,5S,6r)-6-(5-methyl-4-phenylisoxazol-3-yl)-3-azabicyclo[3.1.0]hexan-3-yl)methanone] | 24 10^−6 cm/s |  |  |  |
| O=C(NC1CN(C(=O)c2cc(C3CC3)[nH]n2)C1)C1CC12CC2 (single isomer, unassigned) [EXAMPLE 105, N-(1-(5-cyclopropyl-1H-pyrazole-3-carbonyl)azetidin-3-yl)spiro[2.2]pentane-1-carboxamide] | 6 10^−6 cm/s |  |  |  |
| CC(C)c1cc(C(=O)N2CC3(C2)CN(C(=O)C2CC2)C3C)n[nH]1 (single isomer, unassigned) [EXAMPLE 92, [2-(Cyclopropanecarbonyl)-3-methyl-2,6-diazaspiro[3.3]heptan-6-yl]-(5-isopropyl-1H-pyrazol-3-yl)methanone] |  | 8 | 6.22 |  |

Next, values leading:

| MDCK-WT (Papp) [10^−6 cm/s] (Wild type MDCKII cells) | Papp A→B at 60 min, 10 μM [1] [×10⁻⁶ cm/s] | pIC50 (KDM5A protein; 20 nM enzyme concentration) | pIC50 (KDM5A protein; * measured at 10 nM enzyme concentration) | Compound |
| --- | --- | --- | --- | --- |
| 20 10^−6 cm/s |  |  |  | CC(C)c1cc(C(=O)N2C[C@@H]3[C@H](C2)[C@H]3C(=O)N2CCCC2(C)C)n[nH]1 [EXAMPLE 131, (2,2-Dimethylpyrrolidin-1-yl)((1R,5S,6r)-3-(5-isopropyl-1H-pyrazole-3-carbonyl)-3-azabicyclo[3.1.0]hexan-6-yl)methanone] |
|  | 68 |  | 5.82 | CC(C)c1cc(C(=O)N2C[C@@H]3[C@H](C2)[C@H]3C(=O)C2CC2)n[nH]1 [EXAMPLE 94, ((1R,5S,6r)-6-(cyclopropanecarbonyl)-3-azabicyclo[3.1.0]hexan-3-yl)(5-isopropyl-1H-pyrazol-3-yl)methanone] |
